Laboratory results published in patent US20100035857A1, “ANTI-HYPERCHOLESTEROLEMIC COMPOUNDS” (priority 2006, published 2010).

System: cholesterol absorption
Experiment: Cholesterol Absorption Assay in Rats
Format: in vivo
Conditions: CD male rats, oral, at the highest dose tested; [3H]-cholesterol counts in liver and plasma
Experimental: Compounds can be tested for cholesterol absorption activity in assays using, e.g., rats or mice, and are preferably tested in the rat assay described herein. Representative compounds of this invention were determined to inhibit cholesterol absorption employing the Cholesterol Absorption Assay in Rats, below. This assay involves comparing a test compound to ezetimibe with respect to their ability to inhibit cholesterol absorption in rats.
Cholesterol Absorption Assay in Rats: CD male rats (n=5/group), aged 5 weeks, were dosed orally with 0.5 ml 0.25% methyl cellulose solution with or without test compound or ezetimibe (0.0003 to 1 mg/kg). 0.5 to 16 hrs later all of the rats were dosed orally with 0.5 ml […]® containing 5 μCi [^3H]-cholesterol per rat. Five hours later, the animals were euthanized, and liver and blood were collected. Cholesterol counts in liver and plasma were determined, and percent inhibition of cholesterol absorption was calculated.

## O=C1[C@H](CC[C@H](O)c2ccc(F)cc2)[C@@H](c2ccc(O)cc2)N1c1ccc(F)cc1 [ezetimibe, Ezetimibe]
  inhibition of cholesterol absorption: > 75%
